According to ChEMBL document CHEMBL4130350, “Discovery, mechanism and metabolism studies of 2,3-difluorophenyl-linker-containing PARP1 inhibitors with enhanced in vivo efficacy for cancer therapy” (Eur J Med Chem, 2017):
Calls of active or inactive are those of the source. No cut-off for these calls is given here.

Key:
[1] = Oral bioavailability in Sprague-Dawley rat at 10 mg/kg by LC-MS/MS analysis; assay type: ADME, organism-based; details: in vivo
[2] = tested on: CAPAN-1; experiment: Antiproliferative activity against human Capan1 cells after 7 days by CCK8 or SRB assay; assay type: functional, cell-based; details: CAPAN-1, 168 h
[3] = tested on: CAPAN-1; experiment: Cell cycle arrest in human Capan1 cells assessed as accumulation at G0/G1 phase at 1 uM after 72 hrs by propidium iodide-staining based flow cytometry (reference value: 63.33%); assay type: functional
[4] = tested on: CAPAN-1; experiment: Effect on total chk1 protein levels in human Capan1 cells at 0.1 to 1 uM after 48 hrs by Western blot analysis; assay type: ADME, cell-based; details: capan-1, 48 h
[5] = tested on: CAPAN-1; experiment: Cell cycle arrest in human Capan1 cells assessed as accumulation at S phase at 0.1 uM after 72 hrs by propidium iodide-staining based flow cytometry (reference value: 21.42%); assay type: functional
[6] = tested on: Mus musculus; experiment: Toxicity in nude BALB/cA mouse xenografted with human MDA-MB-436 cells harboring BRCA1 mutant assessed as weight loss at 50 mg/kg, po administered once daily for 21 consecutive days measured twice per week; assay type: organism-based; details: in vivo
[7] = Apparent permeability across apical to basolateral side in human Caco2 cells after 2 hrs by LC-MS/MS analysis; assay type: ADME, cell-based; details: Caco-2
[8] = tested on: MDA-MB-436; experiment: Induction of apoptosis in human MDA-MB-436 cells assessed as caspase-3/7 activation at 0.1 to 1 uM after 72 hrs by Caspase-Glo 3/7 assay; assay type: functional, cell-based
[9] = Half life in Sprague-Dawley rat at 5 mg/kg, iv by LC-MS/MS analysis; assay type: ADME, organism-based; details: in vivo
[10] = Retention time in mouse liver microsomes at 2 uM up to 60 mins in presence of NADPH by LC-MS/MS analysis; assay type: ADME, microsome; details: 1 h
[11] = AUC in Sprague-Dawley rat at 5 mg/kg, iv by LC-MS/MS analysis; assay type: ADME, organism-based; details: in vivo
[12] = tested on: V79; experiment: Cytotoxicity against BRCA2 expressing Chinese hamster V79 cells after 3 days by CCK8 or SRB assay; assay type: cell-based; details: Cricetulus griseus, V79, 72 h
[13] = Protein binding in mouse plasma at 0.5 to 50 uM after 4 hrs by LC-MS/MS analysis; assay type: ADME, cell-free; details: read-out: PPB (converted)
[14] = tested on: MDA-MB-436; experiment: Antiproliferative activity against human MDA-MB-436 cells after 7 days by CCK8 or SRB assay; assay type: functional, cell-based; details: MDA-MB-436, 168 h
[15] = Apparent permeability across basolateral to apical side in human Caco2 cells assessed as drug recovery at 16870 pmol after 2 hrs by LC-MS/MS analysis; assay type: ADME, cell-based; details: Caco-2, read-out: Drug recovery
[16] = Elimination half-life in mouse liver microsomes at 2 uM up to 60 mins by LC-MS/MS analysis; assay type: ADME, microsome; details: read-out: beta t1/2
[17] = tested on: MDA-MB-436; experiment: Induction of apoptosis in human MDA-MB-436 cells assessed as early apoptotic cells at 0.1 uM after 96 hrs by Annexin V-FITC/propidium iodide double-staining based flow cytometery (reference value: 1.90%); assay type: functional
[18] = Stability in mouse plasma at 1 uM up to 60 mins by LC-MS/MS analysis; assay type: ADME, cell-free; details: read-out: Stability
[19] = biological target: Poly [ADP-ribose] polymerase 1 (Homo sapiens, UniProt P09874); experiment: Inhibition of PARP1 in BRCA1 deficient human MDA-MB-436 cells assessed as increase in DNA double stranded breaks by measuring gammaH2AX levels after 48 hrs by Western blot analysis; assay type: cell-based
Sequence of Poly [ADP-ribose] polymerase 1 (P09874 whole entry): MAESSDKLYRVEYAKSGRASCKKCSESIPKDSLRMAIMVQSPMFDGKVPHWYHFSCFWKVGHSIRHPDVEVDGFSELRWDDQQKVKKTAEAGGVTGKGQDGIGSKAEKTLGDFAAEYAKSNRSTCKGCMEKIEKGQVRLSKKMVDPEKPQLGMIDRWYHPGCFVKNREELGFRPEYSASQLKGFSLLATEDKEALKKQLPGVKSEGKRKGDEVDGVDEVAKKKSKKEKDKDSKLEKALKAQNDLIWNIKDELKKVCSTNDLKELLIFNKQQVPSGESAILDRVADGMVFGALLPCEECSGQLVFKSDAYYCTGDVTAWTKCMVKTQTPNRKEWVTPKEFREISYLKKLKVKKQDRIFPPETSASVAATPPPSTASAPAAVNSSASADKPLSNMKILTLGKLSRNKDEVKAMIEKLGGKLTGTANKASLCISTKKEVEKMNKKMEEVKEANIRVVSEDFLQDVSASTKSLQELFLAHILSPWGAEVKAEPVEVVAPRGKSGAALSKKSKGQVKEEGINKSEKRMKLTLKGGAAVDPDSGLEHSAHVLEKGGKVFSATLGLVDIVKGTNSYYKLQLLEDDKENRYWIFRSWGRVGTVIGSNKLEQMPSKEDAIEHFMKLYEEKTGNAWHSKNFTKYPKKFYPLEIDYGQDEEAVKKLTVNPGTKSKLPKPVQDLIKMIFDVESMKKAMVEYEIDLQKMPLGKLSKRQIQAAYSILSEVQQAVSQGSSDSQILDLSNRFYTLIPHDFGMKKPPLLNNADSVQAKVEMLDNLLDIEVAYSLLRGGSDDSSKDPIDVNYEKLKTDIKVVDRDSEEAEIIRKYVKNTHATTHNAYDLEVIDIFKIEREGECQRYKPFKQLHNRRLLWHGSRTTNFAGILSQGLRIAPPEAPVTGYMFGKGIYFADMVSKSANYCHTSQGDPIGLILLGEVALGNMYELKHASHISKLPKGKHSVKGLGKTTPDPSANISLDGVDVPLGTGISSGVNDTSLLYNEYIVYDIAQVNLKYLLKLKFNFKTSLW

[20] = Apparent permeability across apical to basolateral side in human Caco2 cells assessed as drug recovery at 4701.8 pmol after 2 hrs by LC-MS/MS analysis; assay type: ADME, cell-based; details: Caco-2, read-out: Drug recovery
[21] = tested on: CAPAN-1; experiment: Cell cycle arrest in human Capan1 cells assessed as accumulation at G2/M phase at 1 uM after 72 hrs by propidium iodide-staining based flow cytometry (reference value: 15.26%); assay type: functional
[22] = tested on: CAPAN-1; experiment: Antitumor activity against human Capan1 cells harboring BRCA2 mutant xenografted in nude BALB/cA mouse assessed as tumor growth inhibition at 40 mg/kg, po administered once daily for 21 consecutive days measured twice per week; assay type: functional; details: CAPAN-1, po, read-out: TGI
[23] = tested on: CAPAN-1; experiment: Cell cycle arrest in human Capan1 cells after 72 hrs by propidium iodide-staining based flow cytometry; assay type: functional
[24] = tested on: CAPAN-1; experiment: Cell cycle arrest in human Capan1 cells assessed as accumulation at G2/M phase at 0.1 uM after 72 hrs by propidium iodide-staining based flow cytometry (reference value: 15.26%); assay type: functional

## N#Cc1cccnc1N1CCN(C(=O)c2cc(Cc3n[nH]c(=O)c4ccccc34)cc(F)c2F)CC1
[1]
  bioavailability: 4.7%
[2]
  IC50: 7.1 nM
[3]
  Activity: 22.38%
[4]
  Activity: Non-Toxic
[5]
  Activity: 26.75%
[6]
  Activity: Non-Toxic
[7]
  Papp A→B at 2 h: 6.8 ×10⁻⁶ cm/s
[8]
  Activity: Active
[9]
  half-life: 318 min
[10]
  Retention_time: 7.8 min
[11]
  AUC: 1380 ng·h/mL
[12]
  IC50: 10 to 10.3 µM
[13]
  fraction unbound at 4 h, up to 50 µM: 0.012
[14]
  IC50: 0.2 nM
[15]
  recovery at 2 h: 109%
[16]
  half-life at 2 µM: 3 min
[17]
  Activity: 5.36%
[18]
  remaining at 1 h, 1 µM: 105%
[19]
  inhibition: Dose-dependent effect
[20]
  recovery at 2 h: 91.5%
[21]
  Activity: 49.95%
[22]
  inhibition in vivo at 40 mg/kg: 48.1%
[23]
  Activity: Dose-dependent effect
[24]
  Activity: 17.33%
